Test results: patent US8853418B2, “Cyclopentylpyrazoles as N-type calcium channel blockers” (Janssen Pharmaceutica NV, priority 2012, dated 2014)
Read-outs that look alike come from different tables or passages of the source.

Experiments:
[1] = molecular target: N-type calcium channel (α1B (Cav2.2), β3 and α2δ subunits) (Homo sapiens, UniProt Q00975); experiment: Functional Assay: Antagonism of N-Type Calcium Channel (FDSS calcium mobilization, KCl depolarization); format: cell-based; details: for IC50: HEK cell line, 50 mM KCl depolarization, six-point concentration-response, read-out: FDSS IC50
N-type calcium channel (α1B (Cav2.2), β3 and α2δ subunits), sequence (Q00975 whole entry): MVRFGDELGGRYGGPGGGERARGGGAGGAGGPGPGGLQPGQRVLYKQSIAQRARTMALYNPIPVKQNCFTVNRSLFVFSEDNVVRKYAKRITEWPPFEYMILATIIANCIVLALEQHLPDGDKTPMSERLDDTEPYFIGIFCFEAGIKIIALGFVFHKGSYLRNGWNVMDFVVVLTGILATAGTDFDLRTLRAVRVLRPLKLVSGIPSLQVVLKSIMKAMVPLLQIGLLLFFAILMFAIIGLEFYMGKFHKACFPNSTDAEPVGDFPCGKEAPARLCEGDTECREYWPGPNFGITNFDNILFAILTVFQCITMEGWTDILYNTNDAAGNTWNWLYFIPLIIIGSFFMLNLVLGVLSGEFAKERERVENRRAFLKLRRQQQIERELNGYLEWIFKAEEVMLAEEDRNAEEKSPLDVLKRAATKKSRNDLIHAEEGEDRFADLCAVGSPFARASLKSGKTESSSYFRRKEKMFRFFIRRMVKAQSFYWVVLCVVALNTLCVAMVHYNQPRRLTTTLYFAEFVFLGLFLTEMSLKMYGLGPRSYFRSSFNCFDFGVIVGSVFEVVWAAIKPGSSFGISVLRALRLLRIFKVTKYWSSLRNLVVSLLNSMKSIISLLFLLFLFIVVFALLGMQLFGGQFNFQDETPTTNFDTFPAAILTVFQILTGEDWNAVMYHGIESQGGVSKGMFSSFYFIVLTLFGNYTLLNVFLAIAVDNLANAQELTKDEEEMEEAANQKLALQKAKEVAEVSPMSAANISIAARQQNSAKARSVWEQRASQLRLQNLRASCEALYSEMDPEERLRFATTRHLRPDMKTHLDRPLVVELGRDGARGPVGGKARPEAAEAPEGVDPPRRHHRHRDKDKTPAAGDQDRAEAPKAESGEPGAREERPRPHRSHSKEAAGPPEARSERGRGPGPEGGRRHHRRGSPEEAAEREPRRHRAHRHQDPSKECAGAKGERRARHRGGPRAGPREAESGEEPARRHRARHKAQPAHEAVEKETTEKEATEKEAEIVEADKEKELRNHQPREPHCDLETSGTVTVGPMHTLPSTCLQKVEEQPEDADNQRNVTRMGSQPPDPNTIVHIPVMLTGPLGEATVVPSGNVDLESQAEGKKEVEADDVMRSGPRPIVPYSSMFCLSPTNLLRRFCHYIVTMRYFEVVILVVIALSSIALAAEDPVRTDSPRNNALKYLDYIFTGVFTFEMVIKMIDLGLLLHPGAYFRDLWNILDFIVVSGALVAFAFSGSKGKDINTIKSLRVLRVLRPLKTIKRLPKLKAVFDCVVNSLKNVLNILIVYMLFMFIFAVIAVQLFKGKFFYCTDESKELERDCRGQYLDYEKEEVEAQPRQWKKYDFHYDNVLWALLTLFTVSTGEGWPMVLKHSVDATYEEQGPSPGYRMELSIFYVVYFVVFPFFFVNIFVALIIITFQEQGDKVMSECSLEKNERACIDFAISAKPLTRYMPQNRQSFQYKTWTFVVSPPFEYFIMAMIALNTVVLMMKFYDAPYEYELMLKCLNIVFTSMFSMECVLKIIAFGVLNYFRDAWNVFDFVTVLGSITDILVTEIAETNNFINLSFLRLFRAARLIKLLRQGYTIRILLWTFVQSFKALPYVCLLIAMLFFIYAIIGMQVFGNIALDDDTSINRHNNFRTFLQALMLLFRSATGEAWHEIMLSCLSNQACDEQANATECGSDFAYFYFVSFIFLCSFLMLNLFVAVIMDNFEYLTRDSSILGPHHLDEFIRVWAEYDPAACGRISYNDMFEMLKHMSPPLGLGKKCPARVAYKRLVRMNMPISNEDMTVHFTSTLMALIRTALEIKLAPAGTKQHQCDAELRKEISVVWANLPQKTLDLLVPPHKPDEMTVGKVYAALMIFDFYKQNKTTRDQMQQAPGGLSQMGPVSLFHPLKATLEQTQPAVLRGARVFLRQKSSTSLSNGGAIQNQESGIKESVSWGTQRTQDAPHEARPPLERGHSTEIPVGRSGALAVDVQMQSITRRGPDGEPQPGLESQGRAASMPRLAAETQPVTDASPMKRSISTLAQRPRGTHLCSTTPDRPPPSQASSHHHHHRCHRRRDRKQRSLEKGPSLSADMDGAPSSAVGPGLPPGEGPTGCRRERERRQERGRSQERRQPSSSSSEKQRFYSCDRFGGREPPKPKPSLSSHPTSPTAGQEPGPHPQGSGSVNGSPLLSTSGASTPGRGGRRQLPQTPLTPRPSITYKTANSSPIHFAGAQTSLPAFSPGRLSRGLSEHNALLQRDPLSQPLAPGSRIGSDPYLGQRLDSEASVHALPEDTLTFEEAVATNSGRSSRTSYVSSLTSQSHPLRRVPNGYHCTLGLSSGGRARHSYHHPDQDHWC
N-type calcium channel (α1B (Cav2.2), β3 and α2δ subunits), sequence (P54284 whole entry partner): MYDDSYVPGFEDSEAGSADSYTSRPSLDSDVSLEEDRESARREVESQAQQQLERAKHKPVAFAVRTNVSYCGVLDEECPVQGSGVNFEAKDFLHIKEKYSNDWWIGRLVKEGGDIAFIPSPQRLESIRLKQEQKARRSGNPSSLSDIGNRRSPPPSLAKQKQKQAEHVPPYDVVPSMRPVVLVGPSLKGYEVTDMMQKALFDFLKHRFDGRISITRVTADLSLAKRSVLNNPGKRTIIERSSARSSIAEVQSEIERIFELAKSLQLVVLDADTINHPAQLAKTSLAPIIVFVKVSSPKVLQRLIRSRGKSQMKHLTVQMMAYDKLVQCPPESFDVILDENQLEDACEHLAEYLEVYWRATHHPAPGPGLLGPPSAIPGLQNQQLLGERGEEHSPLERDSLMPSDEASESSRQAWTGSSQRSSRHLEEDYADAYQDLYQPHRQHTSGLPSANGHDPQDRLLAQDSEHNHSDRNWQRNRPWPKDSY
N-type calcium channel (α1B (Cav2.2), β3 and α2δ subunits), sequence (P54289 25-946 partner limits assumed): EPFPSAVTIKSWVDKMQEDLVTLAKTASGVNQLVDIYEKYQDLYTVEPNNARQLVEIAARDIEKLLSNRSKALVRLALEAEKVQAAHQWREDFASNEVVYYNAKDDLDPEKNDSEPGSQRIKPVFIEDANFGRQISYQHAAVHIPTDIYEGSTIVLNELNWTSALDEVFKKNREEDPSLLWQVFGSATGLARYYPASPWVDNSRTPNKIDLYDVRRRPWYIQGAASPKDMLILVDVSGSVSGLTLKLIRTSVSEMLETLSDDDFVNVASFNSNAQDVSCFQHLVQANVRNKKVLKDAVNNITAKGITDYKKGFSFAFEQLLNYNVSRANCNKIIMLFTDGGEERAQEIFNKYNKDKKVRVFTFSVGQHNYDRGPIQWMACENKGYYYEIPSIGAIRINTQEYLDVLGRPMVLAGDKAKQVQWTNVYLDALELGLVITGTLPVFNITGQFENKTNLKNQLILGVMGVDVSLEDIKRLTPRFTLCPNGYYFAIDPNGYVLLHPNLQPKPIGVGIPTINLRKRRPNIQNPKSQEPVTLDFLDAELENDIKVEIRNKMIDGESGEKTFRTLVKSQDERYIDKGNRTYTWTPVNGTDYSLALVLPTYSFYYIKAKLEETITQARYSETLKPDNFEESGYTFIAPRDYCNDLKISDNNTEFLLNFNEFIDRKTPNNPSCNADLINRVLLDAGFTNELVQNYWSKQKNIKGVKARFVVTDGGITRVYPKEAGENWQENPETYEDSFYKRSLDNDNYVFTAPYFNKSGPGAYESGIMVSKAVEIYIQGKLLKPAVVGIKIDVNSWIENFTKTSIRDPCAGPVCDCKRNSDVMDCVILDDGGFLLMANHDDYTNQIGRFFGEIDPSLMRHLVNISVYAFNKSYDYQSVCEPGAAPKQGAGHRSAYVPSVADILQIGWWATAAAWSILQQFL
N-type calcium channel (α1B (Cav2.2), β3 and α2δ subunits), sequence (P54289 947-1103 partner limits assumed): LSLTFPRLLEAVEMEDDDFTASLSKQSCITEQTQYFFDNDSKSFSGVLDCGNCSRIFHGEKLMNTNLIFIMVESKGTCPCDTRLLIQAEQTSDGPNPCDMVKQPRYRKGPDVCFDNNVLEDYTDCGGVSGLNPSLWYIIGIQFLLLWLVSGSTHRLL
How it was run: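 HEK cells stably co-expressing α1B (Cav2.2), β3 and α2δ were loaded with calcium dye, then given compound with fluorescence recorded for 5 min before 50 mM KCl depolarisation and 3 min more reading. IC50 came from six-point curves of maximal fluorescence, normalised to KCl maximum and buffer minimum.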

N-type calcium channel = N-type calcium channel (Homo sapiens, UniProt Q00975); experiment: Automated Electrophysiology Assay (QPatch-HT whole-cell patch clamp; low- and high-frequency stimulation); format: cell-based
N-type calcium channel, sequence (Q00975 whole entry): as the sequence (Q00975 whole entry) above
N-type calcium channel, sequence (P54284 whole entry partner): as the sequence (P54284 whole entry partner) above
N-type calcium channel, sequence (P54289 25-946 partner limits assumed): as the sequence (P54289 25-946 partner limits assumed) above
N-type calcium channel, sequence (P54289 947-1103 partner limits assumed): as the sequence (P54289 947-1103 partner limits assumed) above

[2] = high-frequency stimulation (15th pulse), read-out: QPatch at High Frequency % Inhibition
[3] = low frequency, read-out: QPatch at Low Frequency % Inhibition

inhibition at 0.33 µM [1] [%] | IC50 [1] [nM] | inhibition at 0.1 µM (N-type calcium channel; [2]) [%] | inhibition at 0.1 µM (N-type calcium channel; [3]) [%] | inhibition at 1 µM (N-type calcium channel; [2]) [%] | inhibition at 1 µM (N-type calcium channel; [3]) [%] | inhibition at 0.03 µM (N-type calcium channel; [2]) [%] | inhibition at 0.03 µM (N-type calcium channel; [3]) [%] | Compound
97 | 1.2 | 63 | 52 | – | – | – | – | CCOc1ccccc1-n1nc2c(c1-c1ccc(Cl)cc1)CC(N(C)S(=O)(=O)N(C)C)C2 (stereo not drawn) [Compound 48, N-[3-(4-chlorophenyl)-2-(2-ethoxyphenyl)-2,4,5,6-tetrahydrocyclopenta[c]pyrazol-5-yl]-N,N′,N′-trimethylsulfamide]
95 | 14 | 41 | 33 | – | – | – | – | CN(C)S(=O)(=O)N(C)[C@@H]1Cc2nn(-c3cccc4c3OCC4)c(-c3ccc(Cl)cc3)c2C1 [Compound 50, N-[(5S)-3-(4-chlorophenyl)-2-(2,3-dihydro-1-benzofuran-7-yl)-2,4,5,6-tetrahydrocyclopenta[c]pyrazol-5-yl]-N,N′,N′-trimethylsulfamide]
94 | 34 | – | – | 66 | 49 | – | – | CC(C)S(=O)(=O)N(C)[C@@H]1Cc2nn(-c3cccc4c3OCC4)c(-c3ccc(Cl)cc3)c2C1 [Compound 51, N-[(5S)-3-(4-chlorophenyl)-2-(2,3-dihydro-1-benzofuran-7-yl)-2,4,5,6-tetrahydrocyclopenta[c]pyrazol-5-yl]-N-methylpropane-2-sulfonamide]
86 | 50 | – | – | 67 | 55 | – | – | COc1ccccc1-n1nc2c(c1-c1ccc(Cl)cc1)CC1(C2)OCCCO1 [Compound 54, 3-(4-chlorophenyl)-2-(2-methoxyphenyl)-2,6-dihydro-4H-spiro[cyclopenta[c]pyrazole-5,2′-[1,3]dioxane]]
95 | 11 | 29 | 12 | 79 | 57 | 19 | 15 | CCC(CC)C(=O)O[C@H]1Cc2nn(-c3ccccc3OC)c(-c3ccc(Cl)cc3)c2C1 [Compound 55, (5R)-3-(4-chlorophenyl)-2-(2-methoxyphenyl)-2,4,5,6-tetrahydrocyclopenta[c]pyrazol-5-yl 2-ethylbutanoate]
93 | 13 | 2 | -1 | 47 | 32 | – | – | COc1ccc(-c2c3c(nn2-c2ccccc2OC)C[C@H](N(C)S(=O)(=O)N(C)C)C3)cn1 [Compound 56, N-[(5R)-2-(2-Methoxyphenyl)-3-(6-methoxypyridin-3-yl)-2,4,5,6-tetrahydrocyclopenta[c]pyrazol-5-yl]-N,N′,N′-trimethylsulfamide]
99 | 18 | – | – | 83 | 75 | – | – | COc1ccccc1-n1nc2c(c1-c1ccc(OC(C)C)nc1)C[C@@H](N(C)S(=O)(=O)N(C)C)C2 [Compound 57, N-{(5R)-2-(2-Methoxyphenyl)-3-[6-(1-methylethoxy)pyridin-3-yl]-2,4,5,6-tetrahydrocyclopenta[c]pyrazol-5-yl}-N,N′,N′-trimethylsulfamide]
98 | 8.6 | – | – | 62 | 40 | – | – | COc1ccccc1-n1nc2c(c1-c1ccc(Cl)cc1)CC(c1cccnc1)C2 (stereo not drawn) [Compound 63, 3-(4-chlorophenyl)-2-(2-methoxyphenyl)-5-pyridin-3-yl-2,4,5,6-tetrahydrocyclopenta[c]pyrazole]
100 | 5.7 | 61 | 48 | – | – | – | – | COc1ccccc1-n1nc2c(c1-c1ccc(Cl)cc1)C[C@H](OC(C)C)C2 [Compound 67, (5S)-3-(4-chlorophenyl)-2-(2-methoxyphenyl)-5-(1-methylethoxy)-2,4,5,6-tetrahydrocyclopenta[c]pyrazole]
